Source: article PMC7733455, “A novel multistage antiplasmodial inhibitor targeting Plasmodium falciparum histone deacetylase 1” (Cell Discovery, 2020)
Where “and” joins values, the source holds several entries; their conditions need not be identical. Identical values can stand only once.

Columns and labels:
3D7^HDA1-TY1 = experiment: Sensitivity of transgenic parasites to JX21108, 3D7^HDA1-TY1; type: cell-based; conditions: Plasmodium falciparum, 3D7, 4 h, read-out: EC50 for 3D7^HDA1-TY1
Description: (§1) Highly synchronized schizont-stage parasites were prepared and treated as described above, with adjustments. […] After washing, parasites were cultured in new CM for another 68 h. Parasite growth was monitored by SYBR Green I staining, as described above. The EC50 was calculated by GraphPad Prism.

[1] = tested on: P. falciparum clinical isolates 6218 and 6320; experiment: Ring-stage survival assay (RSA), isolates 6218 and 6320; type: cell-based, Plasmodium falciparum; conditions: 700 nM, isolates 6218 and 6320
Description: An RSA was performed as described previously[65] to evaluate the activity of JX21108 against the artemisinin- and piperaquine-resistant P. falciparum clinical isolates 6218 and 6320[43]. Briefly, parasites were highly synchronized at 0–3 hpi by a 60%/40%-Percoll gradient[66] followed by 5% D-sorbitol[67] treatment after 3 h. The parasite suspension (0.5%–1% parasitemia, 2% hematocrit) was incubated with compounds at 700 nM in a total volume of 2 mL in a 48-well plate for 6 h. After that, the culture mixture was washed three times with 15 mL of CM before another 66 h of cultivation with CM. A Giemsa-stained blood smear was made after cultivation. Parasitemia was counted from at least 10,000 RBCs by microscopy. The survival rate was calculated as the percentage of that in DMSO control. DHA at a concentration of 700 nM served as a positive control.

P. falciparum GB4 = experiment: 3-day SYBR Green I GIA, strain GB4; type: cell-based; conditions: Plasmodium falciparum; GB4 resistant to chloroquine; read-out: Resistant isolates EC50, GB4
Description: (§2) A 3-day SYBR Green I inhibition EC50 assay was performed as described previously. Briefly, highly synchronized ring-stage parasites by 5% sorbitol (1% parasitemia and 2% hematocrit) were incubated in a 96-well plate with compounds in a total volume of 200 μL. […] The parasites were cultured for 72 h before SYBR Green I staining as described above. The EC50 was calculated by GraphPad Prism. DHA was used as a positive control, and the final concentration of DMSO was 1%.

[2] = In vitro cytotoxicity analysis (CellTiter-Glo), HepG2; conditions: human, HepG2 cells
Description: (§3) In all, 1% DMSO was used as a negative control. The inhibition of each drug was normalized to that of the DMSO control. EC50 was calculated by GraphPad Prism. Three independent assays with two technical replicates each time were conducted in this experiment.

HepG2 cells = experiment: as above
Description: as §3

3D7^HDA1-glmS = experiment: Sensitivity of transgenic parasites to JX21108, 3D7^HDA1-glmS; type: cell-based; conditions: Plasmodium falciparum, 3D7, 4 h, read-out: EC50 for 3D7^HDA1-glmS
Description: as §1

[3] = tested on: P. falciparum isolate 6218; experiment: 3-day SYBR Green I GIA, field isolate 6218; type: cell-based; conditions: Plasmodium falciparum; artemisinin- and piperaquine-resistant isolate; read-out: Resistant isolates EC50, 6218
Description: as §2

3D7^HDAC1-TY1 = experiment: Sensitivity of transgenic parasites to JX21108, 3D7^HDAC1-TY1; type: cell-based; conditions: Plasmodium falciparum, 3D7, 4 h, read-out: EC50 for 3D7^HDAC1-TY1
Description: as §1

[4] = tested on: P. berghei-ANKA-GFP-luc sporozoites; experiment: In vivo liver-stage parasite inhibition assay; design: species or system Plasmodium berghei in BALB/c mice
Description: An in vivo liver-stage parasite inhibition assay was conducted as described previously[68],[69]. Briefly, five female BALB/c mice (6 weeks, 18 g) per group were infected with 5000 P. berghei-ANKA-GFP-luc sporozoites by i.v injection followed immediately by i.v.-administered JX21108 at a single dose of 30 mg/kg or 60 mg/kg (day 0). The β-cyclodextrin was used as a blank control. For fluorescence detection, 3 mg of D-luciferin sodium (Sinochrome BC-220–10) in 100 μL of ddH2O was i.p. injected into each mouse. The fluorescence signals were visualized by an IVIS Lumina series (PerkinElmer) on days 1–4, 6, and 8 after infection. All experimental procedures followed the National Institutes of Health Guide for the Care and Use of Laboratory Animals, as well as the guidelines of the Animal Welfare and Committee of Institut Pasteur of Shanghai, Chinese Academy of Science, IACUC issue No. A2018009.

hHDAC1 = target: T1, hHDAC1 (Homo sapiens, UniProt Q13547); experiment: Human HDAC inhibition assay, hHDAC1; type: biochemical; conditions: performed only once; read-out: Inhibitory Activity IC50, hHDAC1
T1 construct: purchased BPS Bioscience 50058
Description: SAHA and suramin were used as positive controls. The tested compounds were dissolved into 20 mM stock in 100% DMSO. […] Ten microliters of trypsin and Ac-peptide substrate/Tris buffer solution were added to start the reaction, followed by a 1-h incubation at room temperature for HDACs 1–3 and 6. Ten microliters of Ac-peptide substrate/Tris buffer solution was added to start the reaction, followed by a 4-h incubation at room temperature and a further 2-h incubation with trypsin solution for HDAC8 and Sirt 2. […] This experiment was performed only once.

[5] = Liver microsome metabolism assay, human; type: in vitro ADME
Description: Liver microsomes (0.5 mg/mL) were purchased from Corning. Ketanserin was selected as a positive control. The tested compounds were first dissolved in DMSO to a concentration of 10 mM and then diluted to 0.5 mM with acetonitrile. Liver microsome buffer was used to dilute the compounds to a working concentration of 1.5 µM, 30 µL of which was mixed with 15 µL of 6 mM NADPH at 37 °C. At 0, 5, 15, 30, and 45 min after incubation, 135 µL of acetonitrile was added to quench the reaction. The mixture was shaken on a vortex mixer (IKA, MTS 2/4) for 10 min at 600 rpm/min and then centrifuged at 5594× g for 15 min (Thermo Multifuge×3R). The supernatant was diluted 1:1 into distilled water, and analyzed by LC-MS/MS.

[6] = tested on: P. falciparum NF54 stage IV gametocytes; experiment: In vitro gametocyte inhibition assay, stage IV; type: cell-based, Plasmodium falciparum; conditions: NF54 luciferase line, 48 h exposure
Description: To test the activities of JX21108 against different gametocyte stages, the P. falciparum producer NF54^p230p-luc was utilized, as described previously. […] Luciferase intensity based on luciferase expression was detected as described above. The EC50 was calculated by GraphPad Prism. DMSO (1%) was used as a negative control.

T1 sequence (Q13547 whole entry): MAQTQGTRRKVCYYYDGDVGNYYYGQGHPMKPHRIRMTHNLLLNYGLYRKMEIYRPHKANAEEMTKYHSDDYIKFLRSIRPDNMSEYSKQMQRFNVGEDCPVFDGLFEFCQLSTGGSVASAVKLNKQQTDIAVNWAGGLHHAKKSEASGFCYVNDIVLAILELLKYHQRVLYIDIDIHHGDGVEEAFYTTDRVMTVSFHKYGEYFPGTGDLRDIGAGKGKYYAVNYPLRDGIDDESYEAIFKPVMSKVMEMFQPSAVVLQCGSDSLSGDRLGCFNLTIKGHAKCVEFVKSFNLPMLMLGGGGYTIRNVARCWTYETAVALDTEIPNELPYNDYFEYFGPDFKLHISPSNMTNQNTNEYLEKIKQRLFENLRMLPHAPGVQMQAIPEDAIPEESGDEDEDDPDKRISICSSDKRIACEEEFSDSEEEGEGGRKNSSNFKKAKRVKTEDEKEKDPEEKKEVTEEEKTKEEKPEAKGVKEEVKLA

Structure (SMILES): Cl.Cn1cc(CN2CCC3(CCN(c4ncc(C(=O)NO)cn4)C3)C2)c2cc(C#N)ccc21 (stereo not shown) [JX21108]
- EC50 (3D7^HDA1-TY1): 330 ± 57 nM
- RSA effect on ring-stage parasites [1]: greatly inhibited parasite growth at ring stage of 6218 and 6320
- EC50 (P. falciparum GB4): 2.4 ± 0.6 nM
- EC50 at 72 h [2]: 3820 ± 145 nM
- Selectivity index for HepG2 (EC50 HepG2/EC50 3D7) (HepG2 cells): ~ 1060 and 1069 and 1060
- EC50 (3D7^HDA1-glmS): 210 ± 25 nM
- EC50 [3]: 2.2 ± 0.2 nM
- EC50 (3D7^HDAC1-TY1): 114 ± 26.5 nM
- effect on liver infection or subsequent blood-stage P. berghei infection ([4]; single 30 mg/kg dose i.v.): did not produce significant effects
- liver infection (bioluminescence) ([4]; single 60 mg/kg dose i.v., 2 dpi): did not show signs of liver infection
- blood-stage infection ([4]; single 60 mg/kg dose i.v., until 8 dpi): nor did the treated mice show any blood-stage infection
- IC50 (hHDAC1): 1.8 nM
- CL in liver microsomes [5]: 3.34 mL/min/kg
- half-life at 1 µM ([5]; human liver microsomes, read-out: T1/2 in liver microsomes): 8.68 h
- EC50 [6]: 5.9 ± 1.97 nM
- EC50 ([6]; Plasmodium falciparum, NF54, 48 h): 5.85 ± 1.97 nM
